# Data: patent US20240246977A1, “DEGRADATION OF BRUTON'S TYROSINE KINASE (BTK) BY CONJUGATION OF BTK INHIBITORS WITH E3 LIGASE LIGAND AND METHOD OF USE” (BeiGene Switzerland GmbH, priority 2021, published 2024)
# Like-named read-outs stand apart in the source and are kept apart here.
# What was measured:
# HEK-293 cells = test: HEK-293 cytotoxicity detection (CellTiter-Glo); format: cell-based; conditions: 72 h incubation, CellTiter-Glo luminescence, read-out: HEK293
# Experimental: HEK-293 cells were treated with compounds diluted in 0.2% DMSO, dilution was done according to the following protocol: (1) making 500× stock solution in DMSO from 5 mM by 4-fold dilution, total 8 doses were included; (2) making 2× solution in cell culture medium by transferring 0.5 ul 500× stock solution into 125 ul medium; (3) adding 50 ul of 2× solution to cells for incubation of 72 h.
# 25 μl of the CellTiter-Glo®Reagent [(Promega)—Cat No. G7572] was added to each well in the 96-well plate. The contents were mixed for 2 minutes on an orbital shaker to induce cell lysis. The plate was then allowed to incubate at room temperature for 10 minutes to stabilize luminescent signal. Luminescence was recorded on BMG PheraStar with luminescence protocol.
# The inhibition percentage of the compound was calculated by the following equation: Inhibition percentage of Compound=100−100×(Signal-low control)/(High control-low control), wherein signal=each test compound group
# High control=Cell group with added DMSO and without compound, indicating cells proliferation with no inhibition;
# Imax is the maximum percentage of inhibition.
# The IC50 value of a compound can be obtained by fitting the following equation
# (§1) Wherein, X and Y are known values, and IC50, Hillslope, Top and Bottom are the parameters obtained by fitting with software. Y is the inhibition percentage (calculated from the equation), X is the concentration of the compound; IC50 is the concentration of the compound when the 50% inhibition is reached. The smaller the IC50 value is, the stronger the inhibitory ability of the compound is. Vice versa, the higher the IC50 value is, the weaker the ability the inhibitory ability of the compound is; Hillslope represents the slope of the fitted curve, generally around 1*; Bottom represents the minimum value of the curve obtained by data fitting, which is generally 0%±20%; Top represents the maximum value of the curve obtained by data fitting, which is generally 100%±20%. The experimental data were fitted by calculating and analyzing with Dotmatics data analysis software.
# BTK = BTK (Homo sapiens, UniProt Q06187); test: BTK cell degradation in TMD-8 cells, HTRF assay; format: cell-based; design: endogenous in cells; host or cells: TMD-8 cells; conditions: 6 h treatment, IC50 (DC50) of BTK degradation
# BTK, sequence (Q06187 whole entry): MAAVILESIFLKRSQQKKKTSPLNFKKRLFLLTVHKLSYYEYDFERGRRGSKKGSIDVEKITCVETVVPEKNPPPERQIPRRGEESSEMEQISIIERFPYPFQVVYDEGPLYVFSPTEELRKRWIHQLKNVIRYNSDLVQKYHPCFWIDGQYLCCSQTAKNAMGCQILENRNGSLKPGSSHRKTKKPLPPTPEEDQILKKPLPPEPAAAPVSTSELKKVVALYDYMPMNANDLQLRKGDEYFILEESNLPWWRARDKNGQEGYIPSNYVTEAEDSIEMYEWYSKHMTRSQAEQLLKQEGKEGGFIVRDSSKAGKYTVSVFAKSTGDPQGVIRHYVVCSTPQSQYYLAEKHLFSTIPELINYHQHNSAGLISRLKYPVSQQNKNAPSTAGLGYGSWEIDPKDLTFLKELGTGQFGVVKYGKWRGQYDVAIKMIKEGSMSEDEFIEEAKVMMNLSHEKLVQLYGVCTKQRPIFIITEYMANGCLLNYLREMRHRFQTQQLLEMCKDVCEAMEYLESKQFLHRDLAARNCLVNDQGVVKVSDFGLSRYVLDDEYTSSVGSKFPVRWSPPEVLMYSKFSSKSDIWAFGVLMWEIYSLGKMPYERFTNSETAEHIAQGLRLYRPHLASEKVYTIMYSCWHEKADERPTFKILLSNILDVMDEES
# Experimental: TMD-8 cells were treated with compounds diluted in 0.2% DMSO, dilution was done according to the following protocol: (1) making 500× stock solution in DMSO from 1 mM by 6-fold dilution, total 8 doses were included; (2) making 2× solution in cell culture medium by transferring 0.5 μl 500× stock solution into 125 μl medium; (3) adding 15 μl of 2× solution to cells for incubation of 6 h.
# After 6 h treatment, 10 μl 14×lysis buffer was added to each well; the plate was sealed and incubated for 30 min at room temperature on a plate shaker; Once the cells was lysed, 16 μL of cell lysate were transferred to a PE 384-well HTRF detection plate; 4 μL of pre-mixed HTRF antibodies were added to each well; the plate was covered with a plate sealer, and then spinned at 1000 rpm for 1 min, then incubated overnight at room temperature; the results were read on BMG PheraStar with HTRF protocol (337 nm-665 nm-620 nm).
# The inhibition (degradation) percentage of the compound was calculated by the following equation: Inhibition percentage of Compound=100−100×(Signal-low control)/(High control-low control), wherein signal=each test compound group
# High control=Cell group with added DMSO and without compound, indicating microplate readings without BTK degradation;
# Dmax is the maximum percentage of inhibition (degradation).
# The IC50 (DC50) value of a compound can be obtained by fitting the following equation
# Y=Bottom+(TOP−Bottom)/(1+((IC50/X)^hillslope))
# as §1, with “wherein,” for “Wherein,”
DC50 (BTK) [nM],SMILES,IC50 (HEK-293 cells) [nM],"IC50 (HEK-293 cells; Homo sapiens, 72 h) [nM]"
10.6,"Cc1cccc(NC(=O)c2ncc(-c3nn4c(c3C(N)=O)Nc3ccc(N5CCN(C6CC(c7ccc(C8CCC(=O)NC8=O)cc7)C6)CC5)cc3CC4)cc2C)n1 (stereo in doubt) [Example B35, (S)-7-(4-(3-(4-(2,6-dioxopiperidin-3-yl)phenyl)cyclobutyl)piperazin-1-yl)-2-(5-methyl-6-((6-methylpyridin-2-yl)carbamoyl)pyridin-3-yl)-9,10-dihydro-4H-benzo[d]pyrazolo[1,5-a][1,3]diazepine-3-carboxamide]",97.4,
3,"NC(=O)c1c(-c2ccc(Oc3ccccc3)cc2)nn2c1Nc1ccc(NC(=O)C3CCN(c4ccc5c(c4)C(=O)N(C4CCC(=O)NC4=O)C5=O)CC3)cc1CC2 (stereo not drawn) [Example A1, 7-(1-(2-(2,6-dioxopiperidin-3-yl)-1,3-dioxoisoindolin-5-yl)piperidine-4-carboxamido)-2-(4-phenoxyphenyl)-9,10-dihydro-4H-benzo[d]pyrazolo[1,5-a][1,3]diazepine-3-carboxamide]",,417
1.85,"NC(=O)c1c(-c2ccc(Oc3ccccc3)cc2)nn2c1Nc1ccc(NC(=O)COCCOCCOCCOCCNc3cccc4c3C(=O)N(C3CCC(=O)NC3=O)C4=O)cc1CC2 (stereo not drawn) [Example A2, 7-(14-((2-(2,6-dioxopiperidin-3-yl)-1,3-dioxoisoindolin-4-yl)amino)-3,6,9,12-tetraoxatetradecanamido)-2-(4-phenoxyphenyl)-9,10-dihydro-4H-benzo[d]pyrazolo[1,5-a][1,3]diazepine-3-carboxamide]",,557
20.6,"NC(=O)c1c(-c2ccc(Oc3ccccc3)cc2)nn2c1Nc1ccc(NCC3CCN(c4ccc5c(c4)C(=O)N(C4CCC(=O)NC4=O)C5=O)CC3)cc1CC2 (stereo not drawn) [Example A3, 7-(((1-(2-(2,6-dioxopiperidin-3-yl)-1,3-dioxoisoindolin-5-yl)piperidin-4-yl)methyl)amino)-2-(4-phenoxyphenyl)-9,10-dihydro-4H-benzo[d]pyrazolo[1,5-a][1,3]diazepine-3-carboxamide]",,> 10000
27.9,"NC(=O)c1c(-c2ccc(Oc3ccccc3)cc2)nn2c1Nc1cc(N3CCN(CC4CCN(c5ccc6c(c5)C(=O)N(C5CCC(=O)NC5=O)C6=O)CC4)CC3)ccc1CC2 (stereo not drawn) [Example A15, 6-(4-((1-(2-(2,6-dioxopiperidin-3-yl)-1,3-dioxoisoindolin-5-yl)piperidin-4-yl)methyl)piperazin-1-yl)-2-(4-phenoxyphenyl)-9,10-dihydro-4H-benzo[d]pyrazolo[1,5-a][1,3]diazepine-3-carboxamide]",,
9.71,"NC(=O)c1c(-c2ccc(Oc3ccccc3)cc2)nn2c1Nc1ccc(NCC3CCN(c4cc5c(cc4F)C(=O)N(C4CCC(=O)NC4=O)C5=O)CC3)cc1CC2 (stereo not drawn) [Example A16, 7-(((1-(2-(2,6-dioxopiperidin-3-yl)-6-fluoro-1,3-dioxoisoindolin-5-yl)piperidin-4-yl)methyl)amino)-2-(4-phenoxyphenyl)-9,10-dihydro-4H-benzo[d]pyrazolo[1,5-a][1,3]diazepine-3-carboxamide]",,
14.4,"NC(=O)c1c(-c2ccc(Oc3ccccc3)cc2)nn2c1Nc1cc(C(=O)NC3CCN(CC4CCN(c5cc6c(cc5F)C(=O)N(C5CCC(=O)NC5=O)C6=O)CC4)CC3)ccc1CC2 (stereo not drawn) [Example A17, N^6-(1-((1-(2-(2,6-dioxopiperidin-3-yl)-6-fluoro-1,3-dioxoisoindolin-5-yl)piperidin-4-yl)methyl)piperidin-4-yl)-2-(4-phenoxyphenyl)-9,10-dihydro-4H-benzo[d]pyrazolo[1,5-a][1,3]diazepine-3,6-dicarboxamide]",,
17.9,"NC(=O)c1c(-c2ccc(Oc3ccccc3)cc2)nn2c1Nc1cc(C(=O)N3CCN(CC4CCN(c5ccc6c(c5)C(=O)N(C5CCC(=O)NC5=O)C6=O)CC4)CC3)ccc1CC2 (stereo not drawn) [Example A19, 6-(4-((1-(2-(2,6-dioxopiperidin-3-yl)-1,3-dioxoisoindolin-5-yl)piperidin-4-yl)methyl)piperazine-1-carbonyl)-2-(4-phenoxyphenyl)-9,10-dihydro-4H-benzo[d]pyrazolo[1,5-a][1,3]diazepine-3-carboxamide]",,
1.31,"NC(=O)c1c(-c2ccc(Oc3ccccc3)cc2)nn2c1Nc1ccc(N3CCN(CCC4CCN(c5ccc(N6CCC(=O)NC6=O)cc5)CC4)CC3)cc1CC2 [Example A22, 7-(4-(2-(1-(4-(2,4-dioxotetrahydropyrimidin-1(2H)-yl)phenyl)piperidin-4-yl)ethyl)piperazin-1-yl)-2-(4-phenoxyphenyl)-9,10-dihydro-4H-benzo[d]pyrazolo[1,5-a][1,3]diazepine-3-carboxamide]",,
16.3,"CC(C)(C)c1ccc(Oc2ccc(-c3nn4c(c3C(N)=O)Nc3ccc(C5CCN(CCC6CCN(c7ccc(N8CCC(=O)NC8=O)cc7)CC6)CC5)cc3CC4)cc2)cc1 [Example A29, 2-(4-(4-(tert-butyl)phenoxy)phenyl)-7-(1-(2-(1-(4-(2,4-dioxotetrahydropyrimidin-1(2H)-yl)phenyl)piperidin-4-yl)ethyl)piperidin-4-yl)-9,10-dihydro-4H-benzo[d]pyrazolo[1,5-a][1,3]diazepine-3-carboxamide]",,
8.05,"Cc1cccc(NC(=O)c2ccc(-c3nn4c(c3C(N)=O)Nc3ccc(N5CCN(CC6CCN(c7ccc(CN8CCC(=O)NC8=O)cc7)CC6)CC5)cc3CC4)c(F)c2C)n1 [Example B69, 7-(4-((1-(4-((2,4-dioxotetrahydropyrimidin-1(2H)-yl)methyl)phenyl)piperidin-4-yl)methyl)piperazin-1-yl)-2-(2-fluoro-3-methyl-4-((6-methylpyridin-2-yl)carbamoyl)phenyl)-9,10-dihydro-4H-benzo[d]pyrazolo[1,5-a][1,3]diazepine-3-carboxamide]",,
8.66,"Cc1cccc(NC(=O)c2ccc(-c3nn4c(c3C(N)=O)Nc3ccc(N5CCN(CC6CCN(c7cccc(CN8CCC(=O)NC8=O)c7)CC6)CC5)cc3CC4)c(F)c2C)n1 [Example B70, 7-(4-((1-(3-((2,4-dioxotetrahydropyrimidin-1(2H)-yl)methyl)phenyl)piperidin-4-yl)methyl)piperazin-1-yl)-2-(2-fluoro-3-methyl-4-((6-methylpyridin-2-yl)carbamoyl)phenyl)-9,10-dihydro-4H-benzo[d]pyrazolo[1,5-a][1,3]diazepine-3-carboxamide]",,
,"Cc1c(C(=O)Nc2cn(C)cn2)ccc(-c2nn3c(c2C(N)=O)Nc2ccc(N4CCN(CCc5cc(F)c([C@H]6CCC(=O)NC6=O)c(F)c5)CC4)cc2CC3)c1F [Example B89, (R)-7-(4-(4-(2,6-dioxopiperidin-3-yl)-3,5-difluorophenethyl)piperazin-1-yl)-2-(2-fluoro-3-methyl-4-((1-methyl-1H-imidazol-4-yl)carbamoyl)phenyl)-9,10-dihydro-4H-benzo[d]pyrazolo[1,5-a][1,3]diazepine-3-carboxamide]",,> 10000
1.7,"Cc1c(C(=O)Nc2cscn2)ccc(-c2nn3c(c2C(N)=O)Nc2ccc(N4CCN(CCc5cc(F)c([C@H]6CCC(=O)NC6=O)c(F)c5)CC4)cc2CC3)c1F [Example B95, (R)-7-(4-(4-(2,6-dioxopiperidin-3-yl)-3,5-difluorophenethyl)piperazin-1-yl)-2-(2-fluoro-3-methyl-4-(thiazol-4-ylcarbamoyl)phenyl)-9,10-dihydro-4H-benzo[d]pyrazolo[1,5-a] [1,3]diazepine-3-carboxamide]",,
